Experimental data from patent US20220323455A1, “FUSED HETEROCYCLIC DERIVATIVES AS ANTIVIRAL AGENTS” (priority 2019, published 2022).

Tested on: HBV
Assay: HBV replication inhibition assay (BDNA assay) in HepG2.2.15 cells
Type: cell-based, Hepatitis B virus
Settings: 6 days, encapsidated HBV DNA in supernatant
Description: HBV replication inhibition by the disclosed compounds were determined in cells infected or transfected with HBV or cells with stably integrated HBV, such as HepG2.2.15 cells (Sells et al. 1987). In this example, HepG2.2.15 cells were maintained in cell culture medium containing 10% fetal bovine serum (FBS), Geneticin, L-glutamine, penicillin and streptomycin. HepG2.2.15 cells were seeded in 96-well plates at a density of 40,000 cells/well and were treated with serially diluted compounds at a final DMSO concentration of 0.5% either alone or in combination by adding drugs in a checker box format. Cells were incubated with compounds for three days, after which medium was removed and fresh medium containing compounds was added to cells and incubated for another three days. At day 6, supernatant was removed and treated with DNase at 37° C. for 60 minutes, followed by enzyme inactivation at 75° C. for 15 minutes. Encapsidated HBV DNA was released from the virions and covalently linked HBV polymerase by incubating in lysis buffer (Affymetrix QS0010) containing 2.5 μg proteinase K at 50° C. for 40 minutes. HBV DNA was denatured by addition of 0.2 M NaOH and detected using a branched DNA (BDNA) QuantiGene assay kit according to manufacturer recommendation (Affymetrix). HBV DNA levels were also quantified using qPCR, based on amplification of encapsidated HBV DNA extraction with QuickExtraction Solution (Epicentre Biotechnologies) and amplification of HBV DNA using HBV specific PCR probes that can hybridize to HBV DNA and a fluorescently labeled probe for quantitation. In addition, cell viability of HepG2.2.15 cells incubated with test compounds alone or in combination was determined by using CellTitre-Glo reagent according to the manufacturer protocol (Promega). The mean background signal from wells containing only culture medium was subtracted from all other samples, and percent inhibition at each compound concentration was calculated by normalizing to signals from HepG2.2.15 cells treated with 0.5% DMSO using equation E1.
% inhibition(DMSOave−Xi)DMSOave×100% E1:
where DMSOave is the mean signal calculated from the wells that were treated with DMSO control (0% inhibition control) and Xi is the signal measured from the individual wells. EC50 values, effective concentrations that achieved 50% inhibitory effect, were determined by non-linear fitting using Graphpad Prism software (San Diego, Calif.) and equation E2.
Y=Ymin+(Ymax−Ymin)/(1+10(Log EC50−X)×HillSlope) E2:
where Y represents percent inhibition values and X represents the logarithm of compound concentrations.
Selected disclosed compounds were assayed in the HBV replication assay (BDNA assay), as described above, and a representative group of these active compounds is shown in Table 5.

[1] = Hepatitis B virus, HepG2.2.15, 144 h

SMILES | EC50 [nM] | EC50 [1] [nM]
N#CCC1(O)CCC(F)(F)c2c3c(nn2C1)CCN(C(=O)Nc1ccnc(C(F)F)c1F)C3 (single isomer, unassigned) [Example 42, (R*)-8-(Cyanomethyl)-N-(2-(difluoromethyl)-3-fluoropyridin-4-yl)-11,11-difluoro-8-hydroxy-3,4,89,10,11-hexahydro-1H-pyrido[4′,3′:3,4]pyrazolo[1,5-a]azepine-2(7H)-carboxamide] | 163 | 
N#CCC1(O)CCC(F)(F)c2c3c(nn2C1)CCN(C(=O)Nc1ccnc(Br)c1F)C3 (single isomer, unassigned) [Example 43, (S*)—N-(2-Bromo-3-fluoropyridin-4-yl)-8-(cyanomethyl)-11,11-difluoro-8-hydroxy-34,89,10,11-hexahydro-1H-pyrido[4′,3′:3,4]pyrazolo[1,5-a]azepine-2(7H)-carboxamide] | 282 | 
N#CCC1(O)CCC(F)(F)c2c3c(nn2C1)CCN(C(=O)Nc1ccnc(C(F)F)c1F)C3 (single isomer, unassigned) [Example 44, (S*)-8-(Cyanomethyl)-N-(2-(difluoromethyl)-3-fluoropyridin-4-yl)-11,11-difluoro-8-hydroxy-3,4,8,9,10,11-hexahydro-1H-pyrido[4′,3′:3,4]pyrazolo[1,5-a]azepine-2(7H)-carboxamide] | 333 | 
O=C(Nc1ccnc(Br)c1F)N1CCc2nn3c(c2C1)C(F)(F)CCC(F)(CO)C3 (single isomer, unassigned) [Example 47, (S*)—N-(2-Bromo-3-fluoropyridin-4-yl)-8,11,11-trifluoro-8-(hydroxymethyl)-3,4,8,9,10,11-hexahydro-1H-pyrido[4′,3′:3,4]pyrazolo[1,5-a]azepine-2(7H)-carboxamide] | 156 | 
O=C(Nc1ccnc(Br)c1F)N1CCc2nn3c(c2C1)C(F)(F)CCC(F)(CO)C3 (single isomer, unassigned) [Example 48, (R*)—N-(2-Bromo-3-fluoropyridin-4-yl)-8,11,11-trifluoro-8-(hydroxymethyl)-3,4,8,9,10,11-hexahydro-1H-pyrido[4′,3′:3,4]pyrazolo[1,5-a]azepine-2(7H)-carboxamide] | 11 | 
C=CC1(O)CCC(F)(F)c2c3c(nn2C1)CCN(C(=O)Nc1ccc(F)c(C#N)c1)C3 (single isomer, unassigned) [Example 57, (S*)—N-(3-Cyano-4-fluorophenyl)-11,11-difluoro-8-hydroxy-8-vinyl-3,4,8,9,10,11-hexahydro-1H-pyrido[4′,3′:3,4]pyrazolo[1,5-a]azepine-2(7H)-carboxamide] | 9 | 
C#CC1(O)CCC(F)(F)c2c3c(nn2C1)CCN(C(=O)Nc1ccc(F)c(C#N)c1)C3 (single isomer, unassigned) [Example 59, (R*)—N-(3-Cyano-4-fluorophenyl)-8-ethynyl-11,11-difluoro-8-hydroxy-3,4,8,9,10,11-hexahydro-1H-pyrido[4′,3′:3,4]pyrazolo[1,5-a]azepine-2(7H)-carboxamide] | 5 | 
C#CC1(O)CCC(F)(F)c2c3c(nn2C1)CCN(C(=O)Nc1ccc(F)c(C#N)c1)C3 (single isomer, unassigned) [Example 60, (S*)—N-(3-Cyano-4-fluorophenyl)-8-ethynyl-11,11-difluoro-8-hydroxy-3,4,8,9,10,11-hexahydro-1H-pyrido[4′,3′:3,4]pyrazolo[1,5-a]azepine-2(7H)-carboxamide] | 17 | 
CCC1(O)CCC(F)(F)c2c3c(nn2C1)CCN(C(=O)Nc1ccc(F)c(C#N)c1)C3 (single isomer, unassigned) [Example 61, (S*)—N-(3-Cyano-4-fluorophenyl)-8-ethyl-11,11-difluoro-8-hydroxy-3,4,8,9,10,11-hexahydro-1H-pyrido[4′,3′:3,4]pyrazolo[1,5-a]azepine-2(7H)-carboxamide] |  | 40
CCC1(O)CCC(F)(F)c2c3c(nn2C1)CCN(C(=O)Nc1ccc(F)c(C#N)c1)C3 (single isomer, unassigned) [Example 62, (R*)—N-(3-Cyano-4-fluorophenyl)-8-ethyl-11,11-difluoro-8-hydroxy-3,4,8,9,10,11-hexahydro-1H-pyrido[4′,3′:3,4]pyrazolo[1,5-a]azepine-2(7H)-carboxamide] | 42 | 
C#CC1(O)CCC(F)(F)c2c3c(nn2C1)CCN(C(=O)Nc1ccnc(C(F)F)c1F)C3 (single isomer, unassigned) [Example 64, (R*)—N-(2-(Difluoromethyl)-3-fluoropyridin-4-yl)-8-ethynyl-11,11-difluoro-8-hydroxy-3,4,89,10,11-hexahydro-1H-pyrido[4′,3′:3,4]pyrazolo[1,5-a]azepine-2(7H)-carboxamide] |  | 143
C#CC1(O)CCC(F)(F)c2c3c(nn2C1)CCN(C(=O)Nc1ccnc(Br)c1F)C3 (single isomer, unassigned) [Example 65, (S*)—N-(2-Bromo-3-fluoropyridin-4-yl)-8-ethynyl-11,11-difluoro-8-hydroxy-3,4,8,9,10,11-hexahydro-1H-pyrido[4′,3′:3,4]pyrazolo[1,5-a]azepine-2(7H)-carboxamide] | 144 | 
C#CC1(O)CCC(F)(F)c2c3c(nn2C1)CCN(C(=O)Nc1ccnc(C(F)F)c1F)C3 (single isomer, unassigned) [Example 66, (S*)—N-(2-(Difluoromethyl)-3-fluoropyridin-4-yl)-8-ethynyl-11,11-difluoro-8-hydroxy-3,4,8,9,10,11-hexahydro-1H-pyrido[4′,3′:3,4]pyrazolo[1,5-a]azepine-2(7H)-carboxamide] | 149 | 
C[C@@H]1Cc2nn3c(c2CN1C(=O)Nc1ccc(F)c(C(F)(F)F)c1)C(F)(F)CCC(CO)C3 (single isomer, unassigned) [Example 76, (3R,8S*)-11,11-Difluoro-N-(4-fluoro-3-(trifluoromethyl)phenyl)-8-(hydroxymethyl)-3-methyl-3,4,8,9,10,11-hexahydro-1H-pyrido[4′,3′:3,4]pyrazolo[1,5-a]azepine-2(7H)-carboxamide] | 5 | 
C[C@@H]1Cc2nn3c(c2CN1C(=O)Nc1ccnc(Br)c1F)C(F)(F)CCC(CO)C3 (single isomer, unassigned) [Example 77, (3R,8S*)—N-(2-Bromo-3-fluoropyridin-4-yl)-11,11-difluoro-8-(hydroxymethyl)-3-methyl-3,4,8,9,10,11-hexahydro-1H-pyrido[4′,3′:3,4]pyrazolo[1,5-a]azepine-2(7H)-carboxamide] | 14 | 
C[C@@H]1Cc2nn3c(c2CN1C(=O)Nc1ccnc(C(F)F)c1F)C(F)(F)CCC(CO)C3 (single isomer, unassigned) [Example 78, (3R,8S*)—N-(2-(Difluoromethyl)-3-fluoropyridin-4-yl)-11,11-difluoro-8-(hydroxymethyl)-3-methyl-3,4,8,9,10,11-hexahydro-1H-pyrido[4′,3′:3,4]pyrazolo[1,5-a]azepine-2(7H)-carboxamide] | 30 | 
C[C@@H]1Cc2nn3c(c2CN1C(=O)Nc1ccc(F)c(C#N)c1)C(F)(F)CCC(CO)C3 (single isomer, unassigned) [Example 79, (3R,8R*)—N-(3-Cyano-4-fluorophenyl)-11,11-difluoro-8-(hydroxymethyl)-3-methyl-3,4,8,9,10,11-hexahydro-1H-pyrido[4′,3′:3,4]pyrazolo[1,5-a]azepine-2(7H)-carboxamide] |  | 1
C[C@@H]1Cc2nn3c(c2CN1C(=O)Nc1ccc(F)c(C(F)(F)F)c1)C(F)(F)CCC(CO)C3 (single isomer, unassigned) [Example 80, (3R,8R*)-11,11-Difluoro-N-(4-fluoro-3-(trifluoromethyl)phenyl)-8-(hydroxymethyl)-3-methyl-3,4,8,9,10,11-hexahydro-1H-pyrido[4′,3′:3,4]pyrazolo[1,5-a]azepine-2(7H)-carboxamide] | 1 | 
C[C@@H]1Cc2nn3c(c2CN1C(=O)Nc1ccnc(Br)c1F)C(F)(F)CCC(CO)C3 (single isomer, unassigned) [Example 81, (3R,8R*)—N-(2-Bromo-3-fluoropyridin-4-yl)-11,11-difluoro-8-(hydroxymethyl)-3-methyl-3,4,8,9,10,11-hexahydro-1H-pyrido[4′,3′:3,4]pyrazolo[1,5-a]azepine-2(7H)-carboxamide] | 2 | 
C[C@@H]1Cc2nn3c(c2CN1C(=O)Nc1ccnc(C(F)F)c1F)C(F)(F)CCC(CO)C3 (single isomer, unassigned) [Example 82, (3R,8R*)—N-(2-(Difluoromethyl)-3-fluoropyridin-4-yl)-11,11-difluoro-8-(hydroxymethyl)-3-methyl-3,4,8,9,10,11-hexahydro-1H-pyrido[4′,3′:3,4]pyrazolo[1,5-a]azepine-2(7H)-carboxamide] | 1 | 
